This experiment concerns the target RIPK2 (Homo sapiens (Human), UniProt O43353). The experiment is described as follows: RIPK2 inhibition, ADP-Glo Kinase Assay. The following applies: 8His-RIPK2 FL enzyme 8 nM, ATP 5 μM, 15 minutes pre-incubation, 60 minutes at 37° C., luminescence. The experiment is classed as biochemical. In short, it runs like this: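 Full-length 8His-RIPK2 (8 nM) preincubated 15 min at RT with compound (1% DMSO), then 5 μM ATP added for 60 min at 37 °C in HEPES pH 7.5 buffer with Mg2+/Mn2+. ADP measured by ADP-Glo luminescence; activity expressed as % of vehicle control, no-enzyme wells as low control.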
A general note: ADP-Glo turns the ADP formed in a reaction into a luminescent signal.

What is called IC50 is the point on the concentration scale where inhibition reaches its midpoint. Low readings indicate inhibition by little substance, high ones a need for much substance.

RIPK2, sequence (O43353 whole entry): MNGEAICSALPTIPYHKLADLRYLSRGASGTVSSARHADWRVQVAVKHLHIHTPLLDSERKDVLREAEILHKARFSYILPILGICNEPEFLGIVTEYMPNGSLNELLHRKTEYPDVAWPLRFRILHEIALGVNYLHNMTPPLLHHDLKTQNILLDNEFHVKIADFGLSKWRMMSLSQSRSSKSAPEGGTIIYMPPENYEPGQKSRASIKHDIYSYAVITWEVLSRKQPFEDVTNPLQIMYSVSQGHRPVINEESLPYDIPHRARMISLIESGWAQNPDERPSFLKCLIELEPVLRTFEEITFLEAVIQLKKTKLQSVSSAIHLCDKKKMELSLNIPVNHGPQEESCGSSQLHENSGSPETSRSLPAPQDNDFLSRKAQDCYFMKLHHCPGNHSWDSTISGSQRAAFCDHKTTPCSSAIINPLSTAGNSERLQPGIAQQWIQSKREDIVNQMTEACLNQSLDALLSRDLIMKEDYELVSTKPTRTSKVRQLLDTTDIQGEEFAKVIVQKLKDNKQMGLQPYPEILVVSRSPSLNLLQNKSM

On to `COCCC(=O)Nc1cncc(-n2cc(-c3cc(C(=O)NC4CC4)ccc3C)cn2)c1` [Example 143, N-cyclopropyl-3-{1-[5-(3-methoxypropanamido)pyridin-3-yl]-1H-pyrazol-4-yl}-4-methylbenzamide], for which the half-maximal inhibitory concentration (IC50) was found to be 6.1 nM. The figure for `Cc1ccc(C(=O)NC2CC2)cc1-c1cnn(-c2cncc(NC3CCN(C4COC4)CC3)c2)c1` [Example 94, N-cyclopropyl-4-methyl-3-[1-(5-{[1-(oxetan-3-yl)piperidin-4-yl]amino}pyridin-3-yl)-1H-pyrazol-4-yl] benzamide] is 0.81 nM. In turn, `Cc1ccc(C(=O)NC2CC2)cc1-c1cnn(-c2cncc(OC3CCCC3)c2)c1` [Example 148, 3-{1-[5-(cyclopentyloxy)pyridin-3-yl]-1H-pyrazol-4-yl}-N-cyclopropyl-4-methylbenzamide] registered an IC50 of 12 nM.

Take `CCC(=O)Nc1cncc(-n2cc(-c3cc(C(=O)NC4CC4)ccc3C)cn2)c1` [Example 117, N-cyclopropyl-4-methyl-3-[1-(5-propanamidopyridin-3-yl)-1H-pyrazol-4-yl]benzamide]: the IC50 amounted to 3.4 nM. As to `Cc1cc(F)c(C(=O)NC2CC2)cc1-c1cnn(-c2cncc(N[C@@H]3CCN(C)CC3(F)F)c2)c1` (single isomer, unassigned) [Example 176], the IC50 turned out to be 1.5 nM. For the molecule `Cc1ccc(C(=O)NC2CC2)cc1-c1cnn(-c2cncc(NC3CCCCC3)c2)c1` [Example 97, 3-{1-[5-(cyclohexylamino)pyridin-3-yl]-1H-pyrazol-4-yl}-N-cyclo-propyl-4-methylbenzamide], half-maximal inhibition (IC50) was put at 3.3 nM.

On to `Cc1ccc(C(=O)NC2CC2)cc1-c1cnn(-c2cncc(NC3CCN(C4CCCOC4)CC3)c2)c1` (stereo not shown) [Example 161, N-cyclopropyl-4-methyl-3-[1-(5-{[1-(oxan-3-yl)piperidin-4-yl]amino}pyridin-3-yl)-1H-pyrazol-4-yl] benzamide], for which half-maximal inhibition (IC50) required 1.5 nM. For `COC1CCC(N2CCC(Nc3cncc(-n4cc(-c5cc(C(=O)NC6CC6)ccc5C)cn4)c3)CC2)CC1` (stereo not shown) [Example 160, N-cyclopropyl-3-[1-(5-{[1-(4-methoxycyclohexyl)piperidin-4-yl]amino}pyridin-3-yl)-1H-pyrazol-4-yl]-4-methylbenzamide], 1.1 nM corresponded to half-maximal inhibition (IC50). On to `Cc1ccc(C(=O)NC2CC2)cc1-c1cnn(-c2cncc(NC(=O)C3CCC3)c2)c1` [Example 115, 3-[1-(5-cyclobutaneamidopyridin-3-yl)-1H-pyrazol-4-yl]-N-cyclopropyl-4-methylbenzamide], for which the IC50 stood at 2.7 nM. Turning to `Cc1ccc(C(=O)NC2CC2)cc1-c1cnn(-c2cncc(NC(C)C3CCOC3)c2)c1` (stereo not shown) [Example 67, N-cyclopropyl-4-methyl-3-[1-(5-{[1-(oxolan-3-yl)ethyl]amino}pyridin-3-yl)-1H-pyrazol-4-yl]benzamide], half-maximal inhibition (IC50) was put at 1.6 nM.

On to `CO[C@@H]1CN(C)CC[C@@H]1Nc1cncc(-n2cc(-c3cc(C(=O)NC4CC4)c(F)cc3Cl)cn2)c1` [Example 173, 4-Chloro-N-cyclopropyl-2-fluoro-5-{1-[5-((3R,4S)-3-methoxy-1-methyl-piperidin-4-ylamino)-pyridin-3-yl]-1H-pyrazol-4-yl}-benzamide], for which the IC50 turned out to be 1.8 nM. `Cc1ccc(C(=O)NC2CC2)cc1-c1cnn(-c2cncc(NC3CCN(CC4CCOCC4)CC3)c2)c1` [Example 155, N-cyclopropyl-4-methyl-3-[1-(5-{[1-(oxan-4-ylmethyl)piperidin-4-yl]amino}pyridin-3-yl)-1H-pyrazol-4-yl]benzamide] registered an IC50 of 1.7 nM. Turning to `Cc1ccc(C(=O)NC2CC2)cc1-c1cnn(-c2cncc(S(C)(=O)=O)c2)c1` [Example 46, N-cyclopropyl-3-[1-(5-methanesulfonylpyridin-3-yl)-1H-pyrazol-4-yl]-4-methylbenzamide], the IC50 is 190 nM. As for `CNc1cncc(-n2cc(-c3cc(C(=O)NC4CC4)ccc3C)cn2)c1` [Example 141, N-cyclopropyl-4-methyl-3-{1-[5-(methylamino)pyridin-3-yl]-1H-pyrazol-4-yl}benzamide], it took 2.6 nM to reach half-maximal inhibition (IC50). `Cc1ccc(C(=O)NC2CC2)cc1-c1cnn(-c2cncc(NS(C)(=O)=O)c2)c1` [Example 122, N-cyclopropyl-3-[1-(5-methanesulfonamidopyridin-3-yl)-1H-pyrazol-4-yl]-4-methyl-benzamide] yielded an IC50 of 9.5 nM.

For the molecule `Cc1cc(F)c(C(=O)NC2CC2)cc1-c1cnn(-c2cncc(NC3CCN(C4COC4)CC3)c2)c1` [Example 68, N-cyclopropyl-2-fluoro-4-methyl-5-[1-(5-{[1-(oxetan-3-yl)piperidin-4-yl]amino}pyridin-3-yl)-1H-pyrazol-4-yl]benzamide], inhibition was half-maximal at 1.1 nM (IC50).

In turn, `Cc1cc(F)c(C(=O)NC2CC2)cc1-c1cnn(-c2cncc(NC3CC4CCC(C3)N4C3COC3)c2)c1` (stereo not shown) [Example 75, N-cyclopropyl-2-fluoro-4-methyl-5-[1-(5-{[8-(oxetan-3-yl)-8-azabicyclo[3.2.1]octan-3-yl]amino}pyridin-3-yl)-1H-pyrazol-4-yl]benzamide] yielded an IC50 of 0.9 nM. `Cc1ccc(C(=O)NC2CC2)cc1-c1cnn(-c2cncc(NC3CCN(C4CCC4)CC3)c2)c1` [Example 93, 3-(1-{5-[(1-cyclobutylpiperidin-4-yl)amino]pyridin-3-yl}-1H-pyrazol-4-yl)-N-cyclopropyl-4-methyl-benzamide]: the IC50 stood at 1.5 nM.

In the case of `CNCc1cncc(-n2cc(-c3cc(C(=O)NC4CC4)ccc3C)cn2)c1` [Example 39, N-cyclopropyl-4-methyl-3-(1-{5-[(methylamino)methyl]pyridin-3-yl}-1H-pyrazol-4-yl)benzamide], the IC50 stood at 180 nM. `Cc1ccc(C(=O)NC2CC2)cc1-c1cnn(-c2cncc(OC3CCOCC3)c2)c1` [Example 96, N-cyclopropyl-4-methyl-3-{1-[5-(oxan-4-yloxy)pyridin-3-yl]-1H-pyrazol-4-yl}benzamide] registered an IC50 of 5.4 nM. Consider `Cc1ccc(C(=O)NC2CC2)cc1-c1cnn(-c2cncc(NC3CCN(C4CCOCC4)CC3)c2)c1` [Example 162, N-cyclopropyl-4-methyl-3-[1-(5-{[1-(oxan-4-yl)piperidin-4-yl]amino}pyridin-3-yl)-1H-pyrazol-4-yl] benzamide], for which the IC50 worked out at 2.3 nM. `Cc1ccc(C(=O)NC2CC2)cc1-c1cnn(-c2cncc(NC3CCN(C(C)CCO)CC3)c2)c1` (stereo not shown) [Example 153, N-cyclopropyl-3-[1-(5-{[1-(4-hydroxybutan-2-yl)piperidin-4-yl]amino}pyridin-3-yl)-1H-pyrazol-4-yl]-4-methylbenzamide] registered an IC50 of 1.6 nM. In the case of `Cc1ccc(C(=O)NC2CC2)cc1-c1cnn(-c2cncc(N3CCOCC3)c2)c1` [Example 98, N-cyclopropyl-4-methyl-3-{1-[5-(morpholin-4-yl)pyridin-3-yl]-1H-pyrazol-4-yl}benzamide], the midpoint of inhibition, the IC50, lay at 10 nM. With `Cc1ccc(C(=O)NC2CC2)cc1-c1cnn(-c2cncc(NC(=O)C(C)(C)C)c2)c1` [Example 121, N-cyclopropyl-3-{1-[5-(2,2-dimethylpropanamido)pyridin-3-yl]-1H-pyrazol-4-yl}-4-methyl-benzamide], the IC50 was 13 nM. Turning to `COc1cncc(-n2cc(-c3cc(C(=O)NC4CC4)ccc3C)cn2)n1` [Example 127, N-cyclopropyl-3-[1-(6-methoxy-pyrazin-2-yl)-1H-pyrazol-4-yl]-4-methylbenzamide], the IC50 was 86 nM. The molecule `Cc1ccc(C(=O)NC2CC2)cc1-c1cnn(-c2cncc(NC3CCN(C4CCOC4)CC3)c2)c1` (stereo not shown) [Example 166, N-cyclopropyl-4-methyl-3-[1-(5-{[1-(oxolan-3-yl)piperidin-4-yl]amino}pyridin-3-yl)-1H-pyrazol-4-yl] benzamide] showed an IC50 of 0.94 nM. The figure for `Cc1ccc(C(=O)NC2CC2)cc1-c1cnn(-c2cncc(NC(=O)C(C)C)c2)c1` [Example 113, N-cyclopropyl-4-methyl-3-{1-[5-(2-methylpropanamido)pyridin-3-yl]-1H-pyrazol-4-yl}benzamide] is 3.5 nM; for `Cc1ccc(C(=O)NC2CC2)cc1-c1cnn(-c2cncc(N3CCN(C)CC3)c2)c1` [Example 100, N-cyclopropyl-4-methyl-3-{1-[5-(4-methylpiperazin-1-yl)pyridin-3-yl]-1H-pyrazol-4-yl}benzamide] it is 29 nM; for `COCCN1CCC(Nc2cncc(-n3cc(-c4cc(C(=O)NC5CC5)c(F)cc4C)cn3)c2)CC1` [Example 74, N-cyclopropyl-2-fluoro-5-[1-(5-{[1-(2-methoxyethyl)piperidin-4-yl]amino}pyridin-3-yl)-1H-pyrazol-4-yl]-4-methylbenzamide] it is 1 nM.

The molecule `CC(=O)N1CC(Oc2cncc(-n3cc(-c4cc(C(=O)NC5CC5)ccc4C)cn3)c2)C1` [Example 124, 3-(1-{5-[(1-acetylazetidin-3-yl)oxy]pyridin-3-yl}-1H-pyrazol-4-yl)-N-cyclopropyl-4-methylbenzamide] returned an IC50 of 13 nM.

`Cc1ccc(C(=O)NC2CC2)cc1-c1cnn(-c2cncc(NCC3CC3)c2)c1` [Example 99, N-cyclopropyl-3-(1-{5-[(cyclopropylmethyl)amino]pyridin-3-yl}-1H-pyrazol-4-yl)-4-methyl-benzamide] gave a half-maximal inhibitory concentration (IC50) of 2.6 nM. Molecule `CC(=O)N1CC[C@@H](Oc2cncc(-n3cc(-c4cc(C(=O)NC5CC5)ccc4C)cn3)c2)C1` [Example 126, 3-[1-(5-{[(3R)-1-acetylpyrrolidin-3-yl]oxy}pyridin-3-yl)-1H-pyrazol-4-yl]-N-cyclopropyl-4-methyl-benzamide] displayed an IC50 of 20 nM.

Regarding `Cc1ccc(C(=O)NC2CC2)cc1-c1cn(-c2cccnc2)cn1` [Example 35, N-cyclopropyl-4-methyl-3-[1-(pyridin-3-yl)-1H-imidazol-4-yl] benzamide], the IC50 is 39 nM. `Cc1cncc(-n2cc(-c3cc(C(=O)NC4CC4)ccc3C)cn2)c1` [Example 119, N-cyclopropyl-4-methyl-3-[1-(5-methylpyridin-3-yl)-1H-pyrazol-4-yl]benzamide]: the IC50 is 24 nM.

The record behind these values is patent publication US10138222B2, “Substituted benzamides as RIPK2 inhibitors” (Boehringer Ingelheim International GmbH, priority 2016, dated 2018).
